{"source": "patent US9422293B2", "about": "(priority 2006, dated 2016)", "note": "Counter-ions that a name gives are not always drawn.", "data": [{"target": "rat TRPV1 (Rattus norvegicus (Rat), UniProt O35433)", "sequence (O35433 whole entry)": "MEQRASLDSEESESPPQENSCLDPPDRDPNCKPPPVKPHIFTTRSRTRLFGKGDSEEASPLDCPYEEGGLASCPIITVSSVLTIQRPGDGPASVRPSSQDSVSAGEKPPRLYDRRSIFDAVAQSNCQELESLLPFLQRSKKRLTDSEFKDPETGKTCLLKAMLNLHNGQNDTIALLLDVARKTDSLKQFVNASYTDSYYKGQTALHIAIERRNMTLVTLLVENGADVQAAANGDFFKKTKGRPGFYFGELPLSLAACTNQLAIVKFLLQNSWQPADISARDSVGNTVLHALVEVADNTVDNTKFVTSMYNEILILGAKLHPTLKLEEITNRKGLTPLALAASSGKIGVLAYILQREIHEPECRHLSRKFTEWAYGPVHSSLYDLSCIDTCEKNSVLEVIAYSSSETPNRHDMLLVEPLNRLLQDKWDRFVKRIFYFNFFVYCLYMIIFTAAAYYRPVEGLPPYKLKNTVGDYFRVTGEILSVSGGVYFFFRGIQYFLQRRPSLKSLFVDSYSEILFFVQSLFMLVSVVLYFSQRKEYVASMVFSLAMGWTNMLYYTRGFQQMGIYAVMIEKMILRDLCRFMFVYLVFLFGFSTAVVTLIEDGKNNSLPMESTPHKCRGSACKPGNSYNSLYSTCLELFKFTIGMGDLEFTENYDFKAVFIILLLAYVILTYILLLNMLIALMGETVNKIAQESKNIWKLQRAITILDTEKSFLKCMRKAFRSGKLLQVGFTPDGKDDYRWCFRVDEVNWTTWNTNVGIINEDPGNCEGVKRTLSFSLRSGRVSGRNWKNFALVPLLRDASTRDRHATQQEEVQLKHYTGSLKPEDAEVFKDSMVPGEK", "settings": "read-out: Rat IC50", "units": {"IC50": "nM"}, "values": [{"molecule": "CC(C)(O)c1ccc(Nc2nc(N3CCCCC3)nc3c2CCN(c2ncccc2C(F)(F)F)CC3)cc1", "note": "[Example 177, 2-[4-({2-Piperidin-1-yl-7-[3-(trifluoromethyl)pyridin-2-yl]-6,7,8,9-tetrahydro-5H-pyrimido[4,5-d]azepin-4-yl}amino)phenyl]propan-2-ol]", "IC50": 90}, {"molecule": "CC(C)(C)c1ccc(Nc2nc(N3CCCCC3)nc3c2CCN(c2ncccc2C(F)(F)F)CC3)cc1", "note": "[Example 42, (4-tert-Butyl-phenyl)-[2-piperidin-1-yl-7-(3-trifluoromethyl-pyridin-2-yl)-6,7,8,9-tetrahydro-5H-pyrimido[4,5-d]azepin-4-yl]-amine]", "IC50": 49}, {"molecule": "CC(C)(C)c1ccc(Nc2nc(N3CCCCC3)nc3c2CCN(c2ncccc2C(F)(F)F)CC3)cc1N", "note": "[Example 200, 4-(1,1-Dimethylethyl)-N1-{2-piperidin-1-yl-7-[3-(trifluoromethyl)pyridin-2-yl]-6,7,8,9-tetrahydro-5H-pyrimido[4,5-d]azepin-4-yl}benzene-1,3-diamine]", "IC50": 110}, {"molecule": "CC(C)c1nc2c(c(Nc3ccc(C(F)(F)F)nc3)n1)CCN(c1ncccc1C(F)(F)F)CC2", "note": "[Example 23, [2-Isopropyl-7-(3-trifluoromethyl-pyridin-2-yl)-6,7,8,9-tetrahydro-5H-pyrimido[4,5-d]azepin-4-yl]-(6-trifluoromethyl-pyridin-3-yl)-amine]", "IC50": 310}, {"molecule": "Cc1cc([N+](=O)[O-])cnc1N1CCc2nc(C(C)C)nc(Nc3ccc(C(F)(F)F)cc3)c2CC1", "note": "[Example 87, [2-Isopropyl-7-(3-methyl-5-nitro-pyridin-2-yl)-6,7,8,9-tetrahydro-5H-pyrimido[4,5-d]azepin-4-yl]-(4-trifluoromethyl-phenyl)-amine]", "IC50": 350}, {"molecule": "O=S(=O)(c1ccc(Nc2nc(OC3CCOCC3)nc3c2CCN(c2ncccc2C(F)(F)F)CC3)cc1)C(F)(F)F", "note": "[Example 322, 2-(Tetrahydro-2H-pyran-4-yloxy)-7-[3-(trifluoromethyl)pyridin-2-yl]-N-{4-[(trifluoromethyl)sulfonyl]phenyl}-6,7,8,9-tetrahydro-5H-pyrimido[4,5-d]azepin-4-amine]", "IC50": 10}, {"molecule": "CC(C)(C)c1ccc(Nc2nc(-c3ccccn3)nc3c2CCN(c2ncccc2C(F)(F)F)CC3)cc1", "note": "[Example 171, N-[4-(1,1-Dimethylethyl)phenyl]-2-pyridin-2-yl-7-[3-(trifluoromethyl)pyridin-2-yl]-6,7,8,9-tetrahydro-5H-pyrimido[4,5-d]azepin-4-amine trifluoroacetic acid salt]", "IC50": 80}, {"molecule": "CCCCOc1nc2c(c(Nc3ccc(C(F)(F)F)nc3)n1)CCN(c1ncccc1C(F)(F)F)CC2", "note": "[Example 327, 2-(Butyloxy)-7-[3-(trifluoromethyl)pyridin-2-yl]-N-[6-(trifluoromethyl)pyridin-3-yl]-6,7,8,9-tetrahydro-5H-pyrimido[4,5-d]azepin-4-amine]", "IC50": 890}, {"molecule": "CN(C)CCN(C)c1nc2c(c(Nc3ccc(C(C)(C)C)cc3)n1)CCN(c1ncccc1C(F)(F)F)CC2", "note": "[Example 254, N^2-[2-(Dimethylamino)ethyl]-N^4-[4-(1,1-dimethylethyl)phenyl]-N^2-methyl-7-[3-(trifluoromethyl)pyridin-2-yl]-6,7,8,9-tetrahydro-5H-pyrimido[4,5-d]azepine-2,4-diamine]", "IC50": 100}, {"molecule": "FC(F)(F)c1ccc(Nc2nc(N3CCNCC3)nc3c2CCN(c2ncccc2C(F)(F)F)CC3)cc1", "note": "[Example 99B, [2-Piperazin-1-yl-7-(3-trifluoromethyl-pyridin-2-yl)-6,7,8,9-tetrahydro-5H-pyrimido[4,5-d]azepin-4-yl]-(4-trifluoromethyl-phenyl)-amine trifluoroacetic acid salt]", "IC50": 7200}, {"molecule": "CN(C)c1nc2c(c(Nc3ccc(Cl)c(Cl)c3)n1)CCN(c1ncccc1C(F)(F)F)CC2", "note": "[Example 63B, N^4-(3,4-Dichloro-phenyl)-N^2,N^2-dimethyl-7-(3-trifluoromethyl-pyridin-2-yl)-6,7,8,9-tetrahydro-5H-pyrimido[4,5-d]azepine-2,4-diamine trifluoroacetic acid salt]", "IC50": 2500}, {"molecule": "CC1OCCC1Sc1nc2c(c(Nc3ccc4c(c3)N(C)CCC4(C)C)n1)CCN(c1ncccc1C(F)(F)F)CC2", "note": "(stereo not drawn) [Example 374, 2,5-Anhydro-1,4-dideoxy-3-thio-3-S-{7-[3-(trifluoromethyl)pyridin-2-yl]-4-[(1,4,4-trimethyl-1,2,3,4-tetrahydroquinolin-7-yl)amino]-6,7,8,9-tetrahydro-5H-pyrimido[4,5-d]azepin-2-yl}pentitol]", "IC50": 4}, {"molecule": "O=S(=O)(c1ccc(Nc2nc(OC3CCCCC3)nc3c2CCN(c2ncccc2C(F)(F)F)CC3)cc1)C(F)(F)F", "note": "[Example 308, 2-(Cyclohexyloxy)-7-[3-(trifluoromethyl)pyridin-2-yl]-N-{4-[(trifluoromethyl)sulfonyl]phenyl}-6,7,8,9-tetrahydro-5H-pyrimido[4,5-d]azepin-4-amine]", "IC50": 360}, {"molecule": "FC(F)(F)c1ccc(Nc2ncnc3c2CCN(c2ncccc2C(F)(F)F)CC3)cc1", "note": "[Example 2, (4-Trifluoromethyl-phenyl)-[7-(3-trifluoromethyl-pyridin-2-yl)-6,7,8,9-tetra-hydro-5H-pyrimido[4,5-d]azepin-4-yl]-amine]", "IC50": 790}, {"molecule": "CCCSc1nc2c(c(Nc3ccc(C(F)(F)F)cc3)n1)CCN(c1ncccc1C(F)(F)F)CC2", "note": "[Example 375, 2-(Propylsulfanyl)-N-[4-(trifluoromethyl)phenyl]-7-[3-(trifluoromethyl)pyridin-2-yl]-6,7,8,9-tetrahydro-5H-pyrimido[4,5-d]azepin-4-amine]", "IC50": "> 6670"}, {"molecule": "CC(C)c1nc2c(c(NCc3ccc(Cl)c(C(F)(F)F)c3)n1)CCN(c1ncccc1C(F)(F)F)CC2", "note": "[Example 115, N-{[4-Chloro-3-(trifluoromethyl)phenyl]methyl}-2-(1-methylethyl)-7-[3-(trifluoromethyl)pyridin-2-yl]-6,7,8,9-tetrahydro-5H-pyrimido[4,5-d]azepin-4-amine]", "IC50": 3790}, {"molecule": "CCOc1nc2c(c(Nc3ccc(C(F)(F)F)cc3)n1)CCN(c1ncccc1C(F)(F)F)CC2", "note": "[Example 345, 2-(Ethyloxy)-N-[4-(trifluoromethyl)phenyl]-7-[3-(trifluoromethyl)pyridin-2-yl]-6,7,8,9-tetrahydro-5H-pyrimido[4,5-d]azepin-4-amine trifluoroacetic acid salt]", "IC50": 190}, {"molecule": "CN(C)c1nc2c(c(Nc3ccc(Cl)cc3)n1)CCN(c1ncccc1C(F)(F)F)CC2", "note": "[Example 50B, N^4-(4-Chloro-phenyl)-N^2,N^2-dimethyl-7-(3-trifluoromethyl-pyridin-2-yl)-6,7,8,9-tetrahydro-5H-pyrimido[4,5-d]azepine-2,4-diamine trifluoroacetic acid salt]", "IC50": 910}, {"molecule": "FC(F)(F)c1ccc(Nc2nc(N3CCCCCC3)nc3c2CCN(c2ncccc2C(F)(F)F)CC3)cc1", "note": "[Example 222, 2-Azepan-1-yl-N-[4-(trifluoromethyl)phenyl]-7-[3-(trifluoromethyl)pyridin-2-yl]-6,7,8,9-tetrahydro-5H-pyrimido[4,5-d]azepin-4-amine]", "IC50": 20}, {"molecule": "FC1(F)CCN(c2nc3c(c(Nc4ccc(C(F)(F)F)cc4)n2)CCN(c2ncccc2C(F)(F)F)CC3)C1", "note": "[Example 243, 2-(3,3-Difluoropyrrolidin-1-yl)-N-[4-(trifluoromethyl)phenyl]-7-[3-(trifluoromethyl)pyridin-2-yl]-6,7,8,9-tetrahydro-5H-pyrimido[4,5-d]azepin-4-amine trifluoroacetic acid salt]", "IC50": 450}, {"molecule": "CC(C)(C)c1ccc(Nc2nc(-c3ccccc3)nc3c2CCN(c2ncccc2C(F)(F)F)CC3)cc1", "note": "[Example 6, (4-tert-Butyl-phenyl)-[2-phenyl-7-(3-trifluoromethyl-pyridin-2-yl)-6,7,8,9-tetrahydro-5H-pyrimido[4,5-d]azepin-4-yl]-amine]", "IC50": 490}, {"molecule": "CC(C)c1nc2c(c(Nc3ccc(C(F)(F)F)cc3)n1)CCN(c1ncc(C(=O)O)cc1Cl)CC2", "note": "[Example 288, 5-Chloro-6-[2-(1-methylethyl)-4-{[4-(trifluoromethyl)phenyl]amino}-5,6,8,9-tetrahydro-7H-pyrimido[4,5-d]azepin-7-yl]pyridine-3-carboxylic acid trifluoroacetic acid salt]", "IC50": 2020}, {"molecule": "CC(C)(C)c1ccc(Nc2nc(S(C)(=O)=O)nc3c2CCN(c2ncccc2C(F)(F)F)CC3)cc1", "note": "[Example 207, N-[4-(1,1-Dimethylethyl)phenyl]-2-(methylsulfonyl)-7-[3-(trifluoromethyl)pyridin-2-yl]-6,7,8,9-tetrahydro-5H-pyrimido[4,5-d]azepin-4-amine]", "IC50": 770}, {"molecule": "CN1CCC(C)(C)c2ccc(Nc3nc(N4CCCCC4)nc4c3CCN(c3ncccc3C(F)(F)F)CC4)cc21", "note": "[Example 164, [2-Piperidin-1-yl-7-(3-trifluoromethyl-pyridin-2-yl)-6,7,8,9-tetrahydro-5H-pyrimido[4,5-d]azepin-4-yl]-(1,4,4-trimethyl-1,2,3,4-tetrahydro-quinolin-7-yl)-amine hydrochloride salt]", "IC50": 20}, {"molecule": "FC(F)(F)c1ccc(Nc2nc(-c3ccccc3)nc3c2CCN(c2ncccc2C(F)(F)F)CC3)nc1", "note": "[Example 22, [2-Phenyl-7-(3-trifluoromethyl-pyridin-2-yl)-6,7,8,9-tetrahydro-5H-pyrimido[4,5-d]azepin-4-yl]-(5-trifluoromethyl-pyridin-2-yl)-amine]", "IC50": 130}, {"molecule": "Cc1ccccc1Nc1nc2c(c(Nc3ccc(C(F)(F)F)cc3)n1)CCN(c1ncccc1C(F)(F)F)CC2", "note": "[Example 278, N^2-(2-Methylphenyl)-N^4-[4-(trifluoromethyl)phenyl]-7-[3-(trifluoromethyl)pyridin-2-yl]-6,7,8,9-tetrahydro-5H-pyrimido[4,5-d]azepine-2,4-diamine trifluoroacetic acid salt]", "IC50": 670}, {"molecule": "CC(C)c1nc2c(c(Nc3ccc(C(F)(F)F)nc3)n1)CCN(c1ncccc1S(C)(=O)=O)CC2", "note": "[Example 282, 2-(1-Methylethyl)-7-[3-(methylsulfonyl)pyridin-2-yl]-N-[6-(trifluoromethyl)pyridin-3-yl]-6,7,8,9-tetrahydro-5H-pyrimido[4,5-d]azepin-4-amine]", "IC50": 130}]}]}
